PubChem BioAssay (NCI)
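A five-concentration, 48-hour dose response in 96-well plates underlies each endpoint, interpolated linearly between surrounding concentrations. GI50 = concentration required for 50% inhibition of growth. The concentration for full growth arrest is given as TGI.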

Columns and labels:
Experiment in all cases: inhibition of tumour cell growth, NCI panel, 48 h
U251 CNS = tested on: U251 CNS
SN12C renal = tested on: SN12C renal
HOP-92 NSCLC = tested on: HOP-92 NSCLC
SF-268 CNS = tested on: SF-268 CNS
SW-620 colon = tested on: SW-620 colon
CCRF-CEM leukemia = tested on: CCRF-CEM leukemia
A549 NSCLC = tested on: A549 NSCLC
SNB-19 CNS = tested on: SNB-19 CNS
ACHN renal = tested on: ACHN renal
786-0 renal = tested on: 786-0 renal
HCT-15 colon = tested on: HCT-15 colon
DU-145 prostate = tested on: DU-145 prostate
RPMI-8226 leukemia = tested on: RPMI-8226 leukemia
K-562 leukemia = tested on: K-562 leukemia
M14 melanoma = tested on: M14 melanoma
MOLT-4 leukemia = tested on: MOLT-4 leukemia
SK-MEL-28 melanoma = tested on: SK-MEL-28 melanoma
MDA-MB-231 breast = tested on: MDA-MB-231 breast
SNB-75 CNS = tested on: SNB-75 CNS
MALME-3M melanoma = tested on: MALME-3M melanoma
OVCAR-3 ovarian = tested on: OVCAR-3 ovarian
UACC-62 melanoma = tested on: UACC-62 melanoma
SK-MEL-5 melanoma = tested on: SK-MEL-5 melanoma
T-47D breast = tested on: T-47D breast
MCF7 breast = tested on: MCF7 breast
BT-549 breast = tested on: BT-549 breast
TK-10 renal = tested on: TK-10 renal

SMILES: COc1ccc(OC)c(-c2nc3sccn3c2/C=C2/C(=O)Nc3ccccc32)c1
- GI50 (U251 CNS): 1060 nM
- TGI (U251 CNS): 15 µM
- GI50 (SN12C renal): 4.65 µM
- TGI (SN12C renal): 33.8 µM
- GI50 (HOP-92 NSCLC): 822 nM
- TGI (HOP-92 NSCLC): 19.1 µM
- GI50 (SF-268 CNS): 1330 nM
- TGI (SF-268 CNS): 24.2 µM
- GI50 (SW-620 colon): 506 nM
- TGI (SW-620 colon): 21.4 µM
- GI50 (CCRF-CEM leukemia): 273 nM
- TGI (CCRF-CEM leukemia): 5.37 µM
- GI50 (A549 NSCLC): 849 nM
- TGI (A549 NSCLC): > 60.2 µM
- GI50 (SNB-19 CNS): 1720 nM
- TGI (SNB-19 CNS): > 22.7 µM
- GI50 (ACHN renal): 610 nM
- TGI (ACHN renal): 15.9 µM
- GI50 (786-0 renal): 273 nM
- TGI (786-0 renal): 18.6 µM
- GI50 (HCT-15 colon): 434 nM
- TGI (HCT-15 colon): 14.8 µM
- GI50 (DU-145 prostate): 2100 nM
- TGI (DU-145 prostate): 26.5 µM
- GI50 (RPMI-8226 leukemia): 241 nM
- TGI (RPMI-8226 leukemia): 856 nM
- GI50 (K-562 leukemia): 490 nM
- TGI (K-562 leukemia): > 100 µM
- GI50 (M14 melanoma): 323 nM
- TGI (M14 melanoma): 1410 nM
- GI50 (MOLT-4 leukemia): 47.2 nM
- TGI (MOLT-4 leukemia): 18.4 µM
- GI50 (SK-MEL-28 melanoma): 1960 nM
- TGI (SK-MEL-28 melanoma): 25.2 µM
- GI50 (MDA-MB-231 breast): 2110 nM
- TGI (MDA-MB-231 breast): 25.3 µM
- GI50 (SNB-75 CNS): 2950 nM
- TGI (SNB-75 CNS): > 100 µM
- GI50 (MALME-3M melanoma): 979 nM
- TGI (MALME-3M melanoma): 21.2 µM
- GI50 (OVCAR-3 ovarian): 235 nM
- TGI (OVCAR-3 ovarian): 586 nM
- GI50 (UACC-62 melanoma): 293 nM
- TGI (UACC-62 melanoma): 12.8 µM
- TGI (SK-MEL-5 melanoma): 997 nM
- GI50 (T-47D breast): 7.82 µM
- TGI (T-47D breast): > 49.4 µM
- GI50 (MCF7 breast): 476 nM
- TGI (MCF7 breast): > 35.7 µM
- GI50 (BT-549 breast): 335 nM
- TGI (BT-549 breast): 3.13 µM
- GI50 (TK-10 renal): 1290 nM
